Test results published in patent US6605639B1, “Ligands of nuclear receptor” (Nuclear Receptor Research, Ltd., priority 1998, dated 2003).
“And” between values parts separate entries of the source, which are not always exact repeats. Equal entries are not always repeated.

Key:
[1] = system: cholesterol-7α hydroxylase; test: Formation of 7α-hydroxycholesterol in hepatic microsome of treated rats; assay type: in vivo, rat; conditions: for 7-α-Hydorxycholesterol / 7-α-Hydorxycholesterol (conversion rate): 7 times, 1% cholesterol feed, average of 5 rats
Description: To examine the function mechanism of the compounds of the present invention for promoting bile acid excretion, an experiment was carried out to study the effect on a nuclear receptor LXR. It is assumed that LXR, which is a special nuclear receptor in the liver, might be a cholesterol sensor acting with 22-hydroxycholesterol as a ligand (Bethany A. Janowski at al., Nature 383:728-731, 1996). When cholesterol is accumulated in excess in a respective organ, LXR binds to the ligand, forms a heterodimer with RXR, and then binds to the hormone response element. This binding serves as a signal for promoting the oxidation of cholesterol into bile acid to be excreted from the body, thereby reducing deposited cholesterol. Accordingly, the liver is the organ which accumulates cholesterol in the largest amount and, at the same time, releases cholesterol as bile acid in the largest amount. It is estimated that the ability of the compounds of the present invention to promote the excretion of bile acid into feces would be established as follows. In the liver, RXR and LXR bind to the corresponding ligands, subsequently form a heterodimer with each other, and thus promote the expression of colesterol-7α-hydroxylase which is the rate-limiting enzyme in the biosynthesis pathway of bile acid. That is to say, it is estimated that the compounds of the present invention, ligands of RXR, would promote the transcription of the gene of colesterol-7α-hydroxylase (i.e., the enzyme of the rate state in the bile acid biosynthesis in the liver) and thus enhance the expression of colesterol-7α-hydroxylase. […] Accordingly, it can be concluded that the difference between the effects of clofibrate and the compounds of the present invention on cholesterol metabolism resides in that the former is a ligand of PPARα which is not capable of forming a heterodimer with LXR while the latter enhance the transcription of cholesterol oxidase gene RXR ligand-dependently and thus promote the excretion as bile acid from the body. These findings can be regarded as one major aspect of the present invention.
The experiment was carried out as follows. For each compound, 10 male Sprague Dawley rats weighing about 200 g were divided into 2 groups at random and fed for a week with a powdery rat feed (CE-2; Nippon Crea Co., Ltd.) containing 1% of cholesterol and drinking water ad libitum. The compounds of the present invention were suspended in a 2% acacia solution and orally administered by force once a day 7 times continuously in a dose of 5 mg/kg (Compound-1 and Compound-26) or 20 mg/kg (Compound-6 and Compound-14). In the early morning of the day 8, each animal was killed by blood loss. After refluxing with physiological saline, the liver was taken out immediately. Then 4 times as much 250 mM sucrose solution (containing 75 mM of nicotinamide, 1 mM of EDTA and 0.5 mM of MgCl2) was added to the liver and the mixture was ground with the use of a Teflon homogenizer. Then the liquid ground matter was centrifuged at 9500G for 15 minutes at 4° C. and the mitochondria-free supernatant thus obtained was further centrifuged at 105000G for 60 minutes to thereby separate a microsome fraction. By using the microsome thus separated, the yield of […] was measured in a conventional manner and the conversion rate was calculated.

[2] = system: male ICR and ddY mice; test: Serum total cholesterol lowering effect in mice; assay type: in vivo, mouse; conditions: 8 days; for Serum total cholesterol, % change: vs control; for Serum total cholesterol: Mean±SE
Description: Effect of serum cholesterol lowering agents varies among animals. Namely, some agents which are effective on a certain animal exert […] on others. For example, compactin, which is an HMG CoA reductase inhibitor, cannot lower the serum total cholesterol level when administered to rodents such as rat or mouse. This is because even though HMG CoA reductase is inhibited in the rodent liver, the enzyme is biosynthesized in an amount in excess of that for compensating the inhibition so that the inhibitory effect is negated. Accordingly, it is favorable to calibrate the effect of lowering serum total cholesterol level in as many animals as possible. Concerning the effect of the compounds of the present invention on the serum total cholesterol level, an assay was made with the use of mice. After adding these compounds to a standard powdery feed for rat and mouse, the resultant mixtures were molded into pellets and given for 8 days to male ICR and ddY mice aged 5 weeks. In the afternoon of the day 8, the blood of each animal was collected from the heart and the total cholesterol in the serum was determined. The doses were determined as the maximum dose, in which body weight gain was not suppressed after orally administering for 1 week, and as the ¼ dose thereof.
Each value is represented in Mean±SE (n=10). a) In the case of Compound-1, the control group consisted of 23 animals while the 0.04% and 0.01% groups each consisted of 12 animals.

[3] = system: male Wistar rats; test: Oral administration of Compound-5 to rats: toxicity and Compound-1 in the blood; conditions: rat, in vivo
Description: Male Wistar rats (n=4) weighing about 200 g were employed and the concentration of Compound-1 contained in the serum was expressed in mean±SE (FIG. 9).
In FIG. 9, open circles show a case wherein Compound-5 was solubilized with HCO-60 and orally administered in a dose of 2 mg/kg.
Solid circles show a case wherein Compound-5 was suspended in an acacia solution and orally administered in a dose of 20 mg/kg. Per part of the serum collected with the passage of time, ethanol containing 1% of acetic acid was added and the mixture was allowed to stand in the dark at room temperature for 7 days. Then Compound-1 was determined by high performance liquid chromatography.
Open squares show a case wherein Compound-5 was suspended in an acacia solution and orally administered. Then the blood was collected at definite points and Compound-1 was determined by high performance liquid chromatography immediately thereafter. […] Separately, Compound-5 suspended in an acacia solution was orally administered to rats having been cannulated into the portal vein. Then the portal blood was collected with the passage of time and Compound-1 was determined.

[4] = system: bovine serum; test: Reaction with serum (Schiff base formation): free compound and recovery; conditions: After 24 hours
Description: To recover such a compound in a free state from plasma, it is required to add a large amount of a water-miscible organic solvent (methanol, ethanol, acetone, acetonitrile, etc.) to the plasma, acidify the mixture (pH 3.0 or below) and then allow it to stand at room temperature for about 1 week. […] Ascochlorin, Compound-6 or Compound-14 is dissolved in a small amount of an organic solvent and added to serum.
At definite points, the serum was sampled and divided into 2 portions. Ten times as much acetonitrile was added to one of these portions and the mixture was centrifuged. Then the free compound in the serum was determined. To the other portion, 10 times as much acetonitrile containing 1% of acetic acid was added. After allowing to stand at room temperature for 1 week, the mixture was centrifuged and the free compound was determined (FIG. 10).

[5] = system: db/db mice; test: Calcium metabolism in db/db mice; assay type: in vivo, mouse; conditions: administration for 1 week
Description: RXR also forms a heterodimer with a nuclear receptor, VDR, which acts with active vitamin D3 (1a,25-dihydrocyvitamin D3) as a ligand. However, no study has been made so far how the formation of this heterodimer means in vivo. Thus the effect of this heterodimer on gene transcription and, in its turn, its physiological meaning still remain unknown. Activated vitamin D3 is essential for bone development and growth in children. Also, it is essential for preventing osteoporosis and bone fracture in aged and sick persons. In spite of such meaningful effects, studies have not been conducted to clarify the function of the heterodimer of VDR with RXR. The inventors studied calcium metabolism in db/db mice and the effect of Compound-14 on the calcium metabolism. This study was partly reported in 1992 (Tomoyoshi Hosokawa, Nogei Kagaku Kai-shi (J. Agr. Chem.), 66:1221-1226, 1992). Compared with normal litter of the same age, db/db mice show abnormally high levels of urinary calcium, blood calcium, blood calcitonin and parathyroid hormone. […] By feeding db/db mice over a long time of period (4 weeks), it was found out that these animals suffered form a decrease in bone mineral density compared with normal litter of the same age. […]

Compound | 7-α-Hydorxycholesterol ([1]; 5 mg/kg oral once a day) | 7-α-Hydorxycholesterol (conversion rate) ([1]; 5 mg/kg oral once a day) | Serum total cholesterol, % change ([2]; 0.01% in feed) | Serum total cholesterol ([2]; 0.01% in feed) | Serum total cholesterol, % change ([2]; 0.04% in feed) | Serum total cholesterol ([2]; 0.04% in feed) | toxicity when present in a free state in the blood [3] | 7-α-Hydorxycholesterol ([1]; 20 mg/kg oral once a day) | 7-α-Hydorxycholesterol (conversion rate) ([1]; 20 mg/kg oral once a day) | enzymatic activity and yield of colesterol-7α-hydroxylase per unit protein weight ([1]; ground liver of orally treated rats) | free compound in serum [4] | urinary calcium, blood calcium and calcitonin levels [5]
3-[5-[l(R),2(S),6(S)-trimethyl-3-oxocylohexyl]-3-methyl-2,4-pentadienyl]-2,4-dihydroxy-5-chloro-6-methylbenzaldehyde [Compound-1] | 3.80 nM/hr/mg protein | 5.51% | −11% | 138 ± 5.1 mg/dL | −15% | 131 ± 6.7 mg/dL | strong toxicity |  |  |  |  | 
COc1c(Cl)c(C)c(C=O)c(O)c1C/C=C(C)/C=C/[C@@]1(C)[C@H](C)CCC(=O)[C@@H]1C [Compound-6, 4-O-methylASC] |  |  | −16% and −13% | 93 ± 4.4 mg/dL and 103 ± 1.2 mg/dL |  | 92 ± 3.3 mg/dL and 75 ± 4.4 mg/dL |  | 3.61 nM/hr/mg protein | 5.30% | elevated dose-dependently | scarcely detected | 
CC(/C=C/C1(C)C(C)C=CC(=O)C1C)=C\Cc1c(O)c(Cl)c(C)c(C=O)c1O (stereo not shown) [Compound-26] | 3.31 nM/hr/mg protein | 4.00% | −10% | 132 ± 6.1 mg/dL | −24% | 110 ± 5.4 mg/dL | strong toxicity |  |  |  |  | 
CC(/C=C/[C@@]1(C)[C@H](C)CCC(=O)[C@@H]1C)=C\Cc1c(O)c(C=O)c(C)c(Cl)c1OCC(=O)O [Compound-14, 4-O-carboxymethylASC] |  |  | −7% and −13% | 109 ± 2.8 mg/dL and 174 ± 4.9 mg/dL |  | 144 ± 7.2 mg/dL and 100 ± 4.4 mg/dL |  | 4.47 nM/hr/mg protein | 7.06% |  | scarcely detected | significantly lowered
